The first experiment has as its target T1, Recombinant human cathepsin A (Homo sapiens, UniProt P10619).
T1 construct: Recombinant human cathepsin A (residues 29-480, with a C-terminal 10-His tag); 10-His (C); purchased R&D Systems 1049-SE
T1 sequence (P10619 29-312 limits assumed): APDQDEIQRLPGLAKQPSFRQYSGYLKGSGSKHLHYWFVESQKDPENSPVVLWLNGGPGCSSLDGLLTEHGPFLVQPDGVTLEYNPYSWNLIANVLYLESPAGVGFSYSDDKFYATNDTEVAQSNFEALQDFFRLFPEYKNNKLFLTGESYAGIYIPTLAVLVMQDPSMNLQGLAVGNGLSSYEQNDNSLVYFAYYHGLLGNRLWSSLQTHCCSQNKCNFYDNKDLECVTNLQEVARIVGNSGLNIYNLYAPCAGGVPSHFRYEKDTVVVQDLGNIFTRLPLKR
T1 sequence (P10619 327-480 limits assumed): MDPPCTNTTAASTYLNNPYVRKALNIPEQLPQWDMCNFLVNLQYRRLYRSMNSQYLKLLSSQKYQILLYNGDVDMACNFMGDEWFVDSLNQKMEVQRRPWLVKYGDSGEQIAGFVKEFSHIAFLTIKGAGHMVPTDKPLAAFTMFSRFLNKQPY
Put plainly: Cathepsin A inhibitory activity. The experiment is classed as biochemical. The note with it: pharmacological test "Cathepsin A inhibitory activity"; IC50 given as class A/B/C; read-out: Activity (2): Cathepsin A inhibitory activity, IC50 class. Summed up: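 Human cathepsin A (res. 29-480, C-His10) pre-activated with cathepsin L (MES pH 6.0, DTT, 15 min, 37 °C; quenched with 10 μM E-64). Enzyme (833 ng/ml) preincubated 15 min RT with compound in MES pH 5.5/DTT, then 2 μM Bodipy FL-bradykinin for 15 min RT. Capillary electrophoresis product/substrate peak areas; IC50 from % inhibition.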
Usually IC50 stands for the concentration needed to halve the response being measured. Regarding `COc1cccc([C@H](CC(=O)O)NC(=O)c2cc(O)n(-c3ccc(F)cc3F)n2)c1OC` [Example 189], the IC50 lay within 100 to 1000 nM. `Cc1cccc(C(CC(=O)O)NC(=O)c2cc(O)n(-c3ccccc3Cl)n2)c1C` (stereo not drawn) [Example 220]: the IC50 was in the range of 100 to 1000 nM. For `O=C(O)CC(NC(=O)c1cc(O)n(-c2ccc(F)cc2F)n1)c1cccc(C(F)(F)F)c1Cl` (stereo not drawn) [Example 193], the 50% inhibitory concentration (IC50) is 100 to 1000 nM. Still for that read-out and setting: in the case of `O=C(O)CC(NC(=O)c1cc(O)n(-c2cccc(Cl)c2)n1)c1ccccc1F` (stereo not drawn) [Example 254] it was 100 to 1000 nM. As to `O=C(O)CC(NC(=O)c1cc(O)n(-c2ccccc2)n1)c1cccc(Cl)c1Cl` (stereo not drawn) [Example 168], the IC50 is 100 to 1000 nM.

Regarding `Cc1ccccc1[C@H](CC(=O)O)NC(=O)c1cc(O)n(-c2nccc(C(F)(F)F)n2)n1` [Example 138], the IC50 was in the range of 1000 to 30000 nM.

With `COc1ccc(C(CC(=O)O)NC(=O)c2cc(O)n(-c3ccccc3Cl)n2)c(C)c1` (stereo not drawn) [Example 203], the concentration for half-maximal inhibition (IC50) lay within 100 to 1000 nM.

The same experiment, now with this note: read-out: Activity (2): Cathepsin A inhibitory activity (IC50 class).
`Cc1ccccc1[C@H](CC(=O)O)NC(=O)c1cc(OCCc2c(C)noc2C)n(-c2ccccc2F)n1` [Example 628]: the half-maximal inhibitory concentration (IC50) is less than 100 nM.

Regarding `COc1cc(-c2ccccc2)ccc1C(CC(=O)O)NC(=O)c1cc(O)n(-c2ccccc2Cl)n1` (stereo not drawn) [Example 558, 3-{[1-(2-Chloro-phenyl)-5-hydroxy-1H-pyrazole-3-carbonyl]-amino}-3-(3-methoxy-biphenyl-4-yl)-propionic acid], the IC50 lay within 100 to 1000 nM.

Regarding `Cc1cccc(C(CC(=O)O)NC(=O)c2cc(OCC3CC3)n(-c3ccccc3F)n2)c1C` (stereo not drawn) [Example 703], the IC50 was less than 100 nM.

Turning to `Cc1ccccc1[C@H](CC(=O)O)NC(=O)c1cc(O)n(-c2cccc(Cl)c2F)n1` [Example 589], the IC50 was in the range of 100 to 1000 nM. Same read-out and setting: in the case of `O=C(O)CC(NC(=O)c1cc(O)n(-c2ccccc2)n1)c1ccc(-c2ccc(C(F)(F)F)cc2)cc1` (stereo not drawn) [Example 579] it was 1000 to 30000 nM; in that of `COc1cc(C(=O)N[C@@H](CC(=O)O)c2ccccc2C)nn1-c1cccc(F)c1` [Example 609], less than 100 nM; in that of `O=C(O)C[C@H](NC(=O)c1cc(OCC2CC2)n(-c2ccccc2F)n1)c1cccc(Cl)c1Cl` [Example 702], less than 100 nM. For the compound `O=C(O)CC(NC(=O)c1cc(O)n(-c2ccccc2Cl)n1)c1ccc(-n2cccn2)cc1` (stereo not drawn) [Example 580], the IC50 lay in the range of 100 to 1000 nM. In the case of `COc1cc(C(=O)NC(CC(=O)O)c2ccc(F)cc2C)nn1-c1ccccc1F` (stereo not drawn) [Example 677], the IC50 was less than 100 nM.

For `COc1ccc(C(CC(=O)O)NC(=O)c2cc(O)n(-c3ccccc3Cl)n2)c(C(F)(F)F)c1` (stereo not drawn) [Example 567, 3-{[1-(2-Chloro-phenyl)-5-hydroxy-1H-pyrazole-3-carbonyl]-amino}-3-(4-methoxy-2-trifluoromethyl-phenyl)-propionic acid], the IC50 was 1000 to 30000 nM. The same measure, in the same setting: the value for `Cc1ccccc1[C@H](CC(=O)O)NC(=O)c1cc(OCC(=O)N2CCCC2)n(-c2ccccc2F)n1` [Example 616] was less than 100 nM. For `COc1cc(C(=O)N[C@@H](CC(=O)O)c2ccccc2F)nn1-c1ccccc1F` [Example 679], the IC50 is 100 to 1000 nM. `COc1cc(C(=O)N[C@@H](CC(=O)O)c2ccc(C(F)(F)F)cc2)nn1-c1ccccc1F` [Example 674]: the 50% inhibitory concentration (IC50) is less than 100 nM. Turning to `CCOc1cc(C(=O)NC(CC(=O)O)c2ccc(OC)cc2Cl)nn1-c1ccccc1F` (stereo not drawn) [Example 724], the half-maximal inhibitory concentration (IC50) is less than 100 nM. For the compound `CCOc1cc(C(=O)NC(CC(=O)O)c2ccc(OC)cc2C)nn1-c1ccccc1F` (stereo not drawn) [Example 714], the IC50 is less than 100 nM.

In the case of `N#Cc1ccc([C@H](CC(=O)O)NC(=O)c2cc(OCC3CC3)n(-c3ccccc3F)n2)cc1` [Example 688], the IC50 is less than 100 nM.

The same experiment, now with this note: read-out: Activity (2): Cathepsin A inhibitory activity, IC50 class.
With `Cc1ccccc1[C@H](CC(=O)O)NC(=O)c1cc(OC[C@@](C)(O)C(C)C)n(-c2ccccc2F)n1` (single isomer, unassigned) [Example 833], the half-inhibitory concentration (IC50) lay within 1000 to 30000 nM.

Take `COc1cccc([C@H](CC(=O)O)NC(=O)c2cc(O)n(-c3ccccc3Cl)n2)c1OC` [Example 394]: the IC50 is 100 to 1000 nM. As to `CC(C)(C)[C@](C)(O)COc1cc(C(=O)N[C@@H](CC(=O)O)c2ccccc2F)nn1-c1ccccc1F` [Example 883, (S)-3-(2-Fluoro-phenyl)-3-{[1-(2-fluoro-phenyl)-5-((S)-2-hydroxy-2,3,3-trimethyl-butoxy)-1H-pyrazole-3-carbonyl]-amino}-propionic acid], the half-maximal inhibitory concentration (IC50) was less than 100 nM. As to `N#Cc1ccc([C@H](CC(=O)O)NC(=O)c2cc(O)n(-c3ccccc3F)n2)cc1` [Example 123], the IC50 lay in the range of 100 to 1000 nM. Regarding `COc1ccccc1[C@H](CC(=O)O)NC(=O)c1cc(O)n(-c2ccccc2)n1` [Example 100], the IC50 is 100 to 1000 nM. The same measure, in the same setting: in the case of `Cc1ccccc1C(CC(=O)O)NC(=O)c1cc(O)n(-c2ccccc2)n1` (stereo not drawn) [Example 21] it was 100 to 1000 nM; in that of `O=C(O)CC(NC(=O)c1cc(O)n(-c2ccccc2)n1)c1ccc(Cl)cc1` (stereo not drawn) [Example 58], 100 to 1000 nM. With `O=C(O)C[C@H](NC(=O)c1cc(O)n(-c2ccccc2F)n1)c1ccccc1Br` [Example 397], the IC50 was less than 100 nM.

`O=C(O)CC(NC(=O)c1cc(O)n(-c2ccc(F)cc2F)n1)c1ccc(-c2cccc(F)c2)cc1` (stereo not drawn) [Example 384]: the IC50 lay in the range of 100 to 1000 nM. For `O=C(O)C[C@H](NC(=O)c1cc(O)n(-c2ccccc2F)n1)c1c(F)cccc1F` [Example 125], the IC50 lay in the range of 100 to 1000 nM. In the case of `N#Cc1ccc([C@H](CC(=O)O)NC(=O)c2cc(O)n(-c3ccc(F)cc3)n2)cc1` [Example 341], the IC50 was 100 to 1000 nM.

In the case of `CC(C)[C@@](C)(O)COc1cc(C(=O)N[C@@H](CC(=O)O)c2ccc(Cl)cc2Cl)nn1-c1ccccc1F` [Example 816, (S)-3-(2,4-Dichloro-phenyl)-3-{[1-(2-fluoro-phenyl)-5-((R)-2-hydroxy-2,3-dimethyl-butoxy)-1H-pyrazole-3-carbonyl]-amino}-propionic acid], the IC50 is less than 100 nM. As for `O=C(O)CC(NC(=O)c1cc(O)n(-c2cccc(F)c2)n1)c1ccc(-c2ccc(F)cc2)cc1` (stereo not drawn) [Example 333], the IC50 is 1000 to 30000 nM. Take `O=C(O)CC(NC(=O)c1cc(O)n(-c2ccccc2)n1)C1CC1` (stereo not drawn) [Example 17]: the IC50 lay in the range of 1000 to 30000 nM.

Staying with this experiment, now noted: recombinant human cathepsin A 833 ng/ml, Bodipy FL-labeled bradykinin 2 μM, pH 5.5; read-out: CATH-A IC50.
As for `COc1cc(-c2ccccc2)ccc1C(CC(=O)O)NC(=O)c1cc(O)n(-c2ccccc2Cl)n1` (stereo not drawn) [Example 558, 3-{[1-(2-Chloro-phenyl)-5-hydroxy-1H-pyrazole-3-carbonyl]-amino}-3-(3-methoxy-biphenyl-4-yl)-propionic acid], the IC50 was found to be 699 nM.

For `O=C(O)CC(NC(=O)c1cc(O)n(-c2cccc(Cl)c2)n1)c1cc(F)ccc1F` (stereo not drawn) [Example 465, 3-{[1-(3-Chloro-phenyl)-5-hydroxy-1H-pyrazole-3-carbonyl]-amino}-3-(2,5-difluoro-phenyl)-propionic acid], the 50% inhibitory concentration (IC50) came to 738 nM. In the case of `COc1ccc(C(CC(=O)O)NC(=O)c2cc(O)n(-c3ccccc3Cl)n2)c(C(F)(F)F)c1` (stereo not drawn) [Example 567, 3-{[1-(2-Chloro-phenyl)-5-hydroxy-1H-pyrazole-3-carbonyl]-amino}-3-(4-methoxy-2-trifluoromethyl-phenyl)-propionic acid], the IC50 is 1060 nM.

Staying with this experiment, now noted: recombinant human cathepsin A; read-out: Activity (2): Cathepsin A inhibitory activity, IC50 class.
As to `COc1cc(C(=O)N[C@@H](CC(=O)NC[C@@H]2CCCO2)c2ccccc2C)nn1-c1ccccc1F` [Example 938, 1-(2-Fluoro-phenyl)-5-methoxy-1H-pyrazole-3-carboxylic acid ((S)-2-{[(S)-1-(tetrahydro-furan-2-yl)methyl]-carbamoyl}-1-o-tolyl-ethyl)-amide], the IC50 was less than 100 nM.

In the case of `O=C(O)CC(NC(=O)c1cc(O)n(-c2ccc(Cl)cc2)n1)c1ccc(-c2ccc(F)cc2)cc1` (stereo not drawn) [Example 425], the IC50 lay in the range of 1000 to 30000 nM.

`O=C(O)CC(NC(=O)c1cc(O)n(-c2cccc(Cl)c2)n1)c1cc(F)ccc1F` (stereo not drawn) [Example 465, 3-{[1-(3-Chloro-phenyl)-5-hydroxy-1H-pyrazole-3-carbonyl]-amino}-3-(2,5-difluoro-phenyl)-propionic acid]: the concentration for half-maximal inhibition (IC50) is 100 to 1000 nM.

As for `COc1ccc(F)cc1C(CC(=O)O)NC(=O)c1cc(O)n(-c2cccc(F)c2)n1` (stereo not drawn) [Example 520], the IC50 lay in the range of 100 to 1000 nM. Regarding `O=C(O)C[C@H](NC(=O)c1cc(O)n(-c2cccc(Cl)c2)n1)c1ccc(F)cc1` [Example 411], the IC50 is 1000 to 30000 nM.
